# Data published in patent US9764002B2, “Dosage regimen for therapeutic method” (MADELEINE PHARMACEUTICALS PTY LTD, priority 2013, dated 2017).
# Peptide text beside a SMILES is read from it.
# Tests used:
# clinical = conditions: human, in vivo
# Method: A cohort of 10 subjects with stable CHF and undergoing standard of care treatment was treated with the formulation as follows: • i) 2 sentinel subjects were treated with a one stage 6 hour sc infusion of VSDL at 900 μg/h (Subjects 1 and 3) • ii) 5 subjects were treated with a one stage 12 hour sc infusion of VSDL at 900 μg/h (Subjects 102, 103, 104, 105 and 106); and • iii) 3 subjects were treated with a bimodal sc infusion of VSDL at 900 μg/h for 5 hours and then 550 μg/h for 7 hours (Subjects 111, 112 and 114). The dose regimen for this trial was designed using a pharmacokinetic model for VSDL based on prior data. The final model was used to simulate the median and 90% prediction intervals for 1000 patients given VSDL at 900 μg/h for 5 h then 550 μg/h for 7 h. This dose regimen targeted a population value of 10 ng/ml for the period 6-12 h after the start of the infusion. The predictions of the model were compared to observed VSDL concentration data from the three subjects referred to at iii) above. A model where infusion rate (ml/h) and delivered volume (ml) affected KA was an acceptable empirical description of the data. This model reproduced the observed increase in VSDL concentrations at the end of a subcutaneous infusion. The net effect was generally that KA increased with time during subcutaneous infusions. […] The final model had acceptable predictive performance based on the Visual Predictive Checks (allowing for low number of subjects).
# [1] = human, in vivo
# Method: In our clinical studies, lead patients were dosed at 900 μg/h for 6 hours based on the standard calculation shown earlier to reach a target steady state blood plasma concentration of 10 ng/ml and plasma levels of VSDL measured. Six hours is more than five half-lives for VSDL and, as such, should result in a steady state blood plasma concentration. Having verified the target steady state blood plasma concentration from lead patients, then Cohort 1 “Part 1” received 900 μg/h for 12 hours so as to achieve target steady state blood plasma concentration. However, the target steady state blood plasma concentration was not observed and as such the dosing regime required modification. After significant postulation and modelling of the hypothetical behaviour of VSDL, the multimodal dosage regime was developed. Cohort 1 “Part 2” was introduced using the bimodal dosing regime in an effort to reach a steady state blood plasma concentration of 10 ng/ml. Cohort 1 “Part 2” patients received VSDL at 900 μg/h (ie initial dosage rate) for 5 hours (ie initial period), followed by 550 μg/h for 7 hours (ie maintenance dosage rate).
# [2] = human, in vivo; remark: listed apart in the source
structure (smiles),measurement,setting,value
CC(C)C[C@H](NC(=O)[C@H](C)NC(=O)[C@H](C)NC(=O)CNC(=O)[C@H](C)NC(=O)[C@H](CCC(=O)O)NC(=O)[C@H](CCC(=O)O)NC(=O)[C@H](CC(N)=O)NC(=O)[C@@H]1CCCN1C(=O)[C@H](CCC(=O)O)NC(=O)[C@H](CO)NC(=O)[C@H](CC(C)C)NC(=O)[C@@H](NC(=O)[C@H](CCC(N)=O)NC(=O)[C@@H]1CCCN1C(=O)[C@@H]1CCCN1C(=O)[C@@H](NC(=O)[C@@H](NC(=O)[C@@H](N)CCC(=O)O)C(C)C)C(C)C)C(C)C)C(=O)N[C@@H](CO)C(=O)N1CCC[C@H]1C(=O)N[C@@H](CC(C)C)C(=O)N1CCC[C@H]1C(=O)N[C@@H](CCC(=O)O)C(=O)N[C@H](C(=O)N1CCC[C@H]1C(=O)N1CCC[C@H]1C(=O)N[C@@H](Cc1c[nH]c2ccccc12)C(=O)N[C@H](C(=O)NCC(=O)N[C@@H](CCC(=O)O)C(=O)N[C@H](C(=O)N[C@@H](CO)C(=O)N1CCC[C@H]1C(=O)N[C@@H](C)C(=O)N[C@@H](CCC(N)=O)C(=O)N[C@@H](CCCNC(=N)N)C(=O)O)C(C)C)[C@@H](C)O)C(C)C [VSDL] (H-EVVPPQVLSEPNEEAGAALSPLPEVPPWTGEVSPAQR-OH; N-terminus and C-terminus assumed),"KA Absorption rate constant, Pop value",clinical,0.265 h⁻¹
same,"KARATE Effect of infusion rate of KA, Pop value",clinical,−0.135
same,"KAVOL Effect of infusion volume on KA, Pop value",clinical,0.222
same,"LGT1 Logit F value, Pop value",clinical,−1.05
same,"V Central volume, Pop value",clinical,8.93 L
same,influence of creatinine clearance (CCL) and body mass index (BMI) on VSDL elimination kinetics,clinical,minor
same,clearance,"clinical; CL Clearance, Pop value",263 mL/min
same,clearance,"clinical; CL Maximum Elimination rate, Pop value",447 mL/min
same,"V2 Multiplier of V for sc bolus, Pop value",clinical; sc,1.596
same,"V3 Multiplier of V for sc infusion, Pop value",clinical; sc,3.142
same,bioavailability,"clinical; sc, F Bioavailability, Pop value",25.9%
same,plasma concentration reached on continued increase beyond Css,[1],30 ng/mL
same,Css reached when the dose was doubled,[1]; sc,20 ng/mL
same,steady state blood plasma concentration of VSDL (Css) achieved,[1]; sc,10 ng/mL
same,symptomatic hypotension from blood pressure drops,[2],none of these resulted in symptomatic hypotension
